Assay [1] concerns the target T1, recombinant DCAF1-WT (a.a.'s 1046-1396) (Homo sapiens, UniProt Q9Y4B6).
T1 construct: form of DCAF1 containing the WD40 domain (amino acids (a.a.'s) 1046-1396); made in house
Briefly: gel-ABPP with recombinant purified DCAF1-WT doped into HEK293T cell proteome. The assay is classed as binding. The source says:
FIG. 2 that azetidine acrylamides stereo- and site-selectively engage recombinant DCAF1_C1113. (A) Domain map of DCAF1 with the region used for recombinant protein studies marked in a bracket (a.a.'s 1046-1396) and C1113 highlighted in red. (B) Crystal structure of a DCAF1-Vpx complex (pdb: 5AJA). DCAF1 (a.a.'s 1046-1396) is shown in cyan, Vpx is shown in yellow, and C1113, which is located at the DCAF1-Vpx interface is shown in red. (C) Structures of alkyne-modified azetidine acrylamides MY-11A (5) and MY-11B (6). (D) Gel-ABPP showing the concentration-dependent reactivity of MY-11A and MY-11B (1 h) reactivity with recombinant, purified DCAF1-WT or the DCAF1-C1113A mutant (0.06 μg/μL of DCAF1 protein per sample) doped into HEK293T cell proteome (1 μg/μL). MY-11A/B labeling of proteins was visualized by CuAAC conjugation to an azide-rhodamine tag followed by SDS-PAGE and in-gel fluorescence scanning. Results are from a single experiment representative of two independent experiments. (E) Gel-ABPP showing the concentration-dependent effects of MY-1A and MY-1B on MY-11B reactivity with DCAF1-WT. Samples were treated with MY-1A/B for 2 h, followed by MY-11B (25 μM, 1 h) and analyzed as described in (D). Left, quantification of data presented as mean values±SEM from two independent experiments. Right, representative gel-ABPP results. (D, E) Lower images are Coomassie blue-stained gels corresponding to ABPP gels shown in upper images.
(A) Structures of candidate electrophilic PROTACs YT41R (7), YT41S (8), YT47R (9), and YT47S (10). (B) Gel-ABPP showing the concentration-dependent effects of YT41R and YT47R on MY-11B reactivity with DCAF1-WT protein (0.06 μg/μL of DCAF1 protein per sample) doped into HEK293T cell proteome (1 μg/μL). Also shown are the effects of YT41S and YT47S tested at a single concentration (100 μM). Samples were treated with heterobifunctional compounds for 2 h, followed by MY-11B (25 μM, 1 h) and analyzed as described in FIG. 2D. Left, representative gel-ABPP results. Lower image is Coomassie blue-stained gel corresponding to ABPP gel shown in upper image. Right, quantification of data presented as mean values±SEM from two independent experiments.
DCAF1 is a multi-domain substrate receptor for CRL4 ligases (FIG. 2A) that has diverse physiological and disease functions, including being co-opted by the HIV-2 virus to promote degradation of the antiviral host protein SAMHD1^27-28. […] We verified the stereo- and site-selective engagement of DCAF1_C1113 by azetidine acrylamides using alkynylated analogues of MY-1A and MY-1B (MY-11A (5) and MY-11B (6), respectively; FIG. 2C). For these experiments, we doped into HEK293T cell lysates a recombinantly expressed and purified form of DCAF1 containing the WD40 domain (amino acids (a.a.'s) 1046-1396), in complex with the CRL4 adaptor protein DDB1^31, and exposed these samples to varying concentrations of MY-11A or MY-11B. After 1 h, we assessed MY-11A and MY-11B engagement of DCAF1 by copper-catalyzed azide-alkyne cycloaddition (CuAAC)^32 with an azide-rhodamine reporter tag followed by SDS-PAGE and in-gel fluorescence scanning^33. […] We used gel-ABPP to quantify an in vitro target engagement value (TE50) of approximately 25 μM (95% C.I.=13-38 μM) for MY-1B labeling of DCAF1 (FIG. 2E, left).

A further assay addresses T2, HA-FKBP12 (Homo sapiens, UniProt P62942).
T2 construct: expressed in transfected cells; host or cells: HEK293T
Briefly: HA-FKBP12 abundance by Western blotting in transfected HEK293T cells. In kind it is cell-based. Particulars: 5 μM, 1 h pre-treatment. The source says: (A) Left, western blots showing concentration-dependent effects of YT47R (upper) and YT41R (lower) on FKBP12 abundance in HEK293T cells expressing HA-FBKP12 with or without co-expression of FLAG-DCAF1. Right, quantification of HA-FKBP12 abundance in the indicated experimental groups. (B) Left, western blots showing effects of YT47R versus YT47S (upper) and YT41R versus YT41S (lower) on FKBP12 abundance in HEK293T cells co-expressing HA-FBKP12 and FLAG-DCAF1. Right, quantification of HA-FKBP12 abundance in the indicated experimental groups. (C) Western blots showing effects of YT47R (left blots) and YT41R (right blots) on FKBP12 abundance in HEK293T cells co-expressing HA-FBKP12 and either FLAG-DCAF1-WT or FLAG-DCAF1-C1113A mutant. Quantification of HA-FKBP12 abundance in the indicated experimental groups is shown in the adjacent bar graphs. For (A-C), FKBP12 abundance was determined at 24 h post-treatment with compounds, and data are mean values±SEM for three independent experiments. Statistical significance was calculated with unpaired two-tailed Student's t-tests comparing YT41R/YT47R- and DMSO-treated cells. ***P<0.001, ****P<0.0001.
(A) Left, western blots showing effects of proteasome (MG132) and Neddylation (MLN4924) inhibitors (1 h pre-treatment) on YT47R- and YT41R-dependent degradation of FKBP12 in HEK293T cells co-expressing HA-FBKP12 and FLAG-DCAF1. FKBP12 abundance was determined at 24 h post-treatment with YT47R or YT41R. Right, quantification of HA-FKBP12 abundance in the indicated experimental groups. (B) Left, western blots showing effects of the FKBP12 ligand SLF (20 μM) or DCAF1 ligand MY-11B (1 h pre-treatment with 20 μM SLF or 5 μM MY-11B) on YT47R- and YT41R-dependent degradation of FKBP12 in HEK293T cells co-expressing HA-FBKP12 and FLAG-DCAF1. FKBP12 abundance was determined at 24 h post-treatment with YT47R or YT41R. Right, quantification of HA-FKBP12 abundance in the indicated experimental groups. (C) Left, western blots showing effects of MY-11A or MY-11B (5 μM, 1 h pre-treatment) on YT47R- and YT41R-dependent degradation of FKBP12 in HEK293T cells co-expressing HA-FBKP12 and FLAG-DCAF1. FKBP12 abundance was determined at 24 h post-treatment with YT47R or YT41R. Right, quantification of HA-FKBP12 abundance in the indicated experimental groups. For (A-C), data are mean values±SEM for three-five independent experiments. Statistical significance was calculated with unpaired two-tailed Student's t-tests comparing YT41R/YT47R- and DMSO-treated cells. ****P<0.0001.
Figure S3. Concentration-dependent degradation of FKBP12 by DCAF1-directed electrophilic PROTACs. Top, western blots showing concentration-dependent effects of YT47R and YT41R on FKBP12 abundance in HEK293T cells co-expressing HA-FBKP12 and FLAG-DCAF1. Data are mean values±SEM for four independent experiments. Statistical significance was calculated with unpaired two-tailed Student's t-tests comparing YT41R/YT47R- and DMSO-treated cells. *P<0.1, **P<0.01, ***P<0.001, ****P<0.0001.
Figure S4. Time-dependent degradation of FKBP12 by DCAF1-directed electrophilic PROTACs. Top, western blots showing time-dependent effects of YT47R and YT41R (2 μM each) on FKBP12 abundance in HEK293T cells co-expressing HA-FBKP12 and FLAG-DCAF1. Data are mean values±SEM for four independent experiments. Statistical significance was calculated with unpaired two-tailed Student's t-tests comparing YT41R/YT47R- and DMSO-treated cells. ****P<0.0001.
We next treated HEK293T cells co-transfected with FLAG epitope-tagged full length DCAF1 (a.a.'s 1-1507) and HA (hemagglutinin) epitope-tagged FKBP12 with a concentration range of YT41R or YT47R and, after 24 h, measured HA-FKBP12 abundance by Western blotting.
Background: Immunoblotting shows a protein as a band on a membrane.

A further assay deals with T3, DCAF1-C1113A mutant (Homo sapiens, UniProt Q9Y4B6, C1113A).
T3 construct: the region used for recombinant protein studies marked in a bracket (a.a.'s 1046-1396); made in house
Briefly: gel-ABPP with recombinant DCAF1-C1113A mutant doped into HEK293T cell proteome. Particulars: 1 h. In kind it is binding. The source says:
FIG. 2 that azetidine acrylamides stereo- and site-selectively engage recombinant DCAF1_C1113. (A) Domain map of DCAF1 with the region used for recombinant protein studies marked in a bracket (a.a.'s 1046-1396) and C1113 highlighted in red. (B) Crystal structure of a DCAF1-Vpx complex (pdb: 5AJA). DCAF1 (a.a.'s 1046-1396) is shown in cyan, Vpx is shown in yellow, and C1113, which is located at the DCAF1-Vpx interface is shown in red. (C) Structures of alkyne-modified azetidine acrylamides MY-11A (5) and MY-11B (6). […] MY-11A/B labeling of proteins was visualized by CuAAC conjugation to an azide-rhodamine tag followed by SDS-PAGE and in-gel fluorescence scanning. […] Samples were treated with MY-1A/B for 2 h, followed by MY-11B (25 μM, 1 h) and analyzed as described in (D). Left, quantification of data presented as mean values±SEM from two independent experiments. […]
DCAF1 is a multi-domain substrate receptor for CRL4 ligases (FIG. 2A) that has diverse physiological and disease functions, including being co-opted by the HIV-2 virus to promote degradation of the antiviral host protein SAMHD1^27-28. […] After 1 h, we assessed MY-11A and MY-11B engagement of DCAF1 by copper-catalyzed azide-alkyne cycloaddition (CuAAC)^32 with an azide-rhodamine reporter tag followed by SDS-PAGE and in-gel fluorescence scanning^33. […]

Assay [2] has as its system ternary complex of FKBP12 and DCAF1. Briefly: co-immunoprecipitation of DCAF1 with HA-FKBP12 in HEK293T cells (ternary complex). The assay is classed as cell-based. Particulars: FLAG-DCAF1-WT, 5 μM, 2 h, in the presence of MG132 (10 μM). The protocol: (A) Left, western blots showing effects of YT47R and YT47S on the immunoprecipitation (IP) of FLAG-DCAF1-WT or FLAG-DCAF1-C1113A with HA-FKBP12 in HEK293T cells co-expressing these proteins. Cells were treated with YT47R or YT47S (5 μM) for 2 h in the presence of MG132 (10 μM) prior to lysis and IP with an anti-HA antibody and western blotting for the indicated proteins (DCAF1, FKBP12, and ubiquitinated protein). Right, bar graphs quantifying DCAF1 (top) and ubiquitination (Ub) (bottom) in the indicated IP groups. (B) Left, western blots showing effects of YT47R and YT47S on the IP of endogenous DCAF1 with HA-FKBP12 in HEK293T cells expressing HA-FKBP12. Cells were treated with YT47R or YT47S (5 μM) for 2 h in the presence of MG132 (10 μM) prior to lysis and IP with an anti-HA antibody and western blotting for the indicated proteins (DCAF1, FKBP12). Right, bar graph quantifying DCAF1 in the indicated IP groups. For (A, B), data are mean values±SEM for three independent experiments. Statistical significance was calculated with unpaired two-tailed Student's t-tests comparing YT41R/YT47R- and DMSO-treated cells. **P<0.01, ****P<0.0001. (C) MS-ABPP quantification of IA-DTB labeling of the indicated cysteines in DCAF1 from FLAG-DCAF1-WT-expressing HEK293T cells treated with the indicated concentrations of YT47R (3 h) relative to cells treated with DMSO. Data represent average values±SEM from four independent experiments. Statistical significance was calculated with unpaired two-tailed Student's t-tests comparing compound to DMSO treated cells. *P<0.1.
Finally, we investigated whether electrophilic PROTACs induce a stable ternary complex of FKBP12 with DCAF1 and promote FKBP12 ubiquitination. […] A ternary complex was not observed in cells expressing the DCAF1-C1113A mutant (FIG. 6A), supporting that YT47R induces this complex through site-specifically reacting with C1113. […] In considering possible reasons why this ternary complex formation with endogenous DCAF1 was insufficient to support the degradation of recombinantly expressed FKBP12 (FIG. 4A), we speculate that our current PROTACs (YT41R, YT47R) may require further improvements in cellular properties to enable robust targeted protein degradation mediated by physiological concentrations of DCAF1.

Results on two compounds are retold here after patent publication US20260083722A1, “BIFUNCTIONAL DEGRADERS COMPRISING ELECTROPHILIC PROTACS THAT ENGAGE DCAF1 AND PHARMACEUTICAL COMPOSITIONS COMPRISING THE SAME” (THE SCRIPPS RESEARCH INSTITUTE, priority 2022, published 2026).

T1 sequence (Q9Y4B6 1046-1396): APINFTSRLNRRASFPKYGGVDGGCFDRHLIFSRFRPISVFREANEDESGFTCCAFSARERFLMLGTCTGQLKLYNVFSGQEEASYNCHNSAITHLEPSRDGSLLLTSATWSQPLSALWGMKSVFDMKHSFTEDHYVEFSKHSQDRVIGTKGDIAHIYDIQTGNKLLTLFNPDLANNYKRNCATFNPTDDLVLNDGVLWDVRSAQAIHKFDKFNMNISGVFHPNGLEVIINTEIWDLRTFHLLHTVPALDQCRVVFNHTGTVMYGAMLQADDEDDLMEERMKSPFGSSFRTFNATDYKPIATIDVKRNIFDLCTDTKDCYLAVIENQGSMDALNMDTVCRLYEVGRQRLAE
T1 sequence (Q16531 whole entry partner, the tested form may be a part): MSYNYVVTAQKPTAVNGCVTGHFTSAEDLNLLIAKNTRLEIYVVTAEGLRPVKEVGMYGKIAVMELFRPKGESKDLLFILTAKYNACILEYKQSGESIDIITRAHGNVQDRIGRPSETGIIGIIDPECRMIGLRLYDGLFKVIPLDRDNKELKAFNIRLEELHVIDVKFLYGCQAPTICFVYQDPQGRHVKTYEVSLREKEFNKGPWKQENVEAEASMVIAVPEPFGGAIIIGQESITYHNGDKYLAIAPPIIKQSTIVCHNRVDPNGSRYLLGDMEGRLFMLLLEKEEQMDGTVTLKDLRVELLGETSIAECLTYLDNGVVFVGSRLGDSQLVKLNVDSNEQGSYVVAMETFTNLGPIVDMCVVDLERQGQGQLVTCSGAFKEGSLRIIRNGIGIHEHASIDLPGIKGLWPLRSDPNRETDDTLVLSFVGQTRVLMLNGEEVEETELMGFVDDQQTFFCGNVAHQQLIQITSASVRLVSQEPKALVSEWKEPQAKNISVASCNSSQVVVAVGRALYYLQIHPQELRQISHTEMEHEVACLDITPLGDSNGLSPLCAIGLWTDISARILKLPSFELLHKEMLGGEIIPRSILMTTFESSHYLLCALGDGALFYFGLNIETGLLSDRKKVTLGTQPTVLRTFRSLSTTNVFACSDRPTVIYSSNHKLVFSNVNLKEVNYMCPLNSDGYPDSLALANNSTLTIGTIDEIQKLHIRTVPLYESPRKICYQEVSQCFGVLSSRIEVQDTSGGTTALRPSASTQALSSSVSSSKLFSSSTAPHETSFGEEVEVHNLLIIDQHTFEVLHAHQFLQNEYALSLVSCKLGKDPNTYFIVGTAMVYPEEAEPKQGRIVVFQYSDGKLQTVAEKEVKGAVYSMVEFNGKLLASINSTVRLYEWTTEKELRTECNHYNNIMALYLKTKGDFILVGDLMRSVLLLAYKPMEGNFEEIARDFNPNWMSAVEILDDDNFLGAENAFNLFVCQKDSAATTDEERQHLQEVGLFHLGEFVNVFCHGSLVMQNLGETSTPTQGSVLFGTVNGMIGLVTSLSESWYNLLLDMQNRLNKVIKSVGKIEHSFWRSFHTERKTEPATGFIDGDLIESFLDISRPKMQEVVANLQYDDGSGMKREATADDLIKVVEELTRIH
T2 sequence (P62942 whole entry): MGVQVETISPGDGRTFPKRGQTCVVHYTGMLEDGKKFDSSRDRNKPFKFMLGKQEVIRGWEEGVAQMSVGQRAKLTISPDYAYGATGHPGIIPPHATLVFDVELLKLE
T3 sequence (Q9Y4B6 1046-1396 C1113A): as the sequence (Q9Y4B6 1046-1396) above, with C68A counted along it
T3 sequence (Q16531 whole entry partner): as the sequence (Q16531 whole entry partner, the tested form may be a part) above

As to `C#Cc1ccc([C@H]2CN(C(=O)C=C)[C@H]2C(=O)Nc2cccc3cccnc23)cc1` [MY-11B, (2R,3S)-1-acryloyl-3-(4-ethynylphenyl)-N-(88uinoline-8-yl) azetidine-2-carboxamide], the “labeling of recombinant DCAF1 by alkyne probe” value in assay [1] (1 h, DCAF1-WT, CuAAC azide-rhodamine, in-gel fluorescence) is given as “much greater concentration-dependent labeling”. Also, the “effect on YT41R/YT47R-mediated degradation of HA-FKBP12” value on HA-FKBP12 was “blocked”. In addition, the “labeling of DCAF1-C1113A mutant by alkyne probe” value on DCAF1-C1113A mutant is “blocked by mutation of C1113 to alanine”.
As for `C=CC(=O)N1C[C@@H](c2ccc(C(=O)NCCOCCOCCOCCNC(=O)COc3cccc([C@@H](CCc4ccc(OC)c(OC)c4)OC(=O)[C@@H]4CCCCN4C(=O)C(=O)C(C)(C)CC)c3)cc2)[C@H]1C(=O)Nc1cccc2cccnc12` [YT47S], the “inhibition of MY-11B probe reactivity with recombinant DCAF1” value in assay [1] (2 h, then MY-11B 25 μM 1 h, YT41S and YT47S at single concentration 100 μM) is given as “did not impair”. Further, the “ternary complex of FKBP12 and DCAF1” value in assay [2] is on record as “not”.
